Data reported in PubChem BioAssay (NCI).
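All cell lines were grown in 96-well plates and treated with compound for 48 hours. GI50 = concentration required for 50% inhibition of growth. TGI denotes the concentration required for complete inhibition of growth.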

Experiments:
Assay in all cases: inhibition of tumour cell growth, NCI panel, 48 h
KM12 colon = tested on: KM12 colon
A549 NSCLC = tested on: A549 NSCLC
TK-10 renal = tested on: TK-10 renal
HCC-2998 colon = tested on: HCC-2998 colon
RXF 393 renal = tested on: RXF 393 renal
A498 renal = tested on: A498 renal
M14 melanoma = tested on: M14 melanoma
MALME-3M melanoma = tested on: MALME-3M melanoma
SR leukemia = tested on: SR leukemia
HCT-116 colon = tested on: HCT-116 colon

CC1(C)N=C(N)N=C(N)N1c1ccc(CCc2ccccc2)c(Cl)c1
GI50 (KM12 colon): 0.0994 µM
TGI (KM12 colon): 7.61 µM
GI50 (A549 NSCLC): 0.0452 µM
TGI (A549 NSCLC): 14 µM
GI50 (TK-10 renal): 1.96 µM
TGI (TK-10 renal): 18.3 µM
GI50 (HCC-2998 colon): 0.361 µM
TGI (HCC-2998 colon): 13.3 µM
GI50 (RXF 393 renal): 0.829 µM
TGI (RXF 393 renal): 17.6 µM
GI50 (A498 renal): 0.788 µM
TGI (A498 renal): 15 µM
GI50 (M14 melanoma): 0.124 µM
TGI (M14 melanoma): 13.7 µM
GI50 (MALME-3M melanoma): 0.728 µM
TGI (MALME-3M melanoma): 19 µM
GI50 (SR leukemia): 0.0562 µM
TGI (SR leukemia): 18.7 µM
GI50 (HCT-116 colon): 0.0347 µM
TGI (HCT-116 colon): 14 µM
